Results reported in patent publication US12479847B2 (DANA-FARBER CANCER INSTITUTE, INC., priority 2019, dated 2025).

What was measured:
Assay in all cases: KINOMEscan (ScanMAX) kinase profiling
Type in all cases: binding
[1] = target: T1, panel of 468 kinases (Homo sapiens, UniProt P07947); details: YES; 1 μM; read-out: % control
T1 construct: purchased KINOMEscan (ScanMAX) service

[2] = target: T2, panel of 468 kinases (Homo sapiens, UniProt P19525); details: PRKR; 1 μM; read-out: % control
T2 construct: purchased KINOMEscan (ScanMAX) service
T2 sequence (P19525 whole entry): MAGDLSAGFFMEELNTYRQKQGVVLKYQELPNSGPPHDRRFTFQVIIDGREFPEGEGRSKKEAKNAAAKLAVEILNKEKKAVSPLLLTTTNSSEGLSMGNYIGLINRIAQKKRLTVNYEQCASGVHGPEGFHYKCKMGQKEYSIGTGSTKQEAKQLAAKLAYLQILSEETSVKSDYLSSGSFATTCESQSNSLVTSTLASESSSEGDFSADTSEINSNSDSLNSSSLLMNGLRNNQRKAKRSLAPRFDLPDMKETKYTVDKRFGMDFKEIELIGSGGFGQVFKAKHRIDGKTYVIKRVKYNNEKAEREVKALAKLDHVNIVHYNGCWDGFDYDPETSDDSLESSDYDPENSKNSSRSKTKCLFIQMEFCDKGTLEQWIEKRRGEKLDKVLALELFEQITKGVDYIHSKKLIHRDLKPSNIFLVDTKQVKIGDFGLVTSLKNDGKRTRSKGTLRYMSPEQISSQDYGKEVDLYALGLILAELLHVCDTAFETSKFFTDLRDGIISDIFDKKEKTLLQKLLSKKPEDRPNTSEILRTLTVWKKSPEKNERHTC

[3] = target: T3, panel of 468 kinases (Homo sapiens, UniProt P35626); details: GRK3; 1 μM; read-out: % control
T3 construct: purchased KINOMEscan (ScanMAX) service
T3 sequence (P35626 1-688): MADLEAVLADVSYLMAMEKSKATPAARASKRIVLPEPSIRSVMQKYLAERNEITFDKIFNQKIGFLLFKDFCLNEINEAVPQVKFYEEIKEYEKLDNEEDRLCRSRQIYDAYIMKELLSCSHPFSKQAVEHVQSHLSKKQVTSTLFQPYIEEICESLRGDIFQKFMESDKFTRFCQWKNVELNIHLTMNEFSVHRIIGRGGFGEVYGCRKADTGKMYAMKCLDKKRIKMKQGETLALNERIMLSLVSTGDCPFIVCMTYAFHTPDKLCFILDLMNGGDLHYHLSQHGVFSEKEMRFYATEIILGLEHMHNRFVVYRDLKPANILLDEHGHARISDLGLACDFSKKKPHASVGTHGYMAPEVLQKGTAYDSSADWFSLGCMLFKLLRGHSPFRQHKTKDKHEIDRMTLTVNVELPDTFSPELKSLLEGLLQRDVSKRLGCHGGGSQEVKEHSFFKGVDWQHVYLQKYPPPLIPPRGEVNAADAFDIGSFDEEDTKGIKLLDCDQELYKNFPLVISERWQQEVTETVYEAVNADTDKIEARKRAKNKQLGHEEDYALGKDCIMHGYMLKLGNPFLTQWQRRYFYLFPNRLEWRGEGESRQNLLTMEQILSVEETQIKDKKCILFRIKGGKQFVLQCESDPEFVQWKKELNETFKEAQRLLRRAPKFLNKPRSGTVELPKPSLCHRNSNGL

[4] = target: T4, panel of 468 kinases (Homo sapiens, UniProt P36897); details: TGFBR1; 1 μM; read-out: % control
T4 construct: purchased KINOMEscan (ScanMAX) service
T4 sequence (P36897 34-503): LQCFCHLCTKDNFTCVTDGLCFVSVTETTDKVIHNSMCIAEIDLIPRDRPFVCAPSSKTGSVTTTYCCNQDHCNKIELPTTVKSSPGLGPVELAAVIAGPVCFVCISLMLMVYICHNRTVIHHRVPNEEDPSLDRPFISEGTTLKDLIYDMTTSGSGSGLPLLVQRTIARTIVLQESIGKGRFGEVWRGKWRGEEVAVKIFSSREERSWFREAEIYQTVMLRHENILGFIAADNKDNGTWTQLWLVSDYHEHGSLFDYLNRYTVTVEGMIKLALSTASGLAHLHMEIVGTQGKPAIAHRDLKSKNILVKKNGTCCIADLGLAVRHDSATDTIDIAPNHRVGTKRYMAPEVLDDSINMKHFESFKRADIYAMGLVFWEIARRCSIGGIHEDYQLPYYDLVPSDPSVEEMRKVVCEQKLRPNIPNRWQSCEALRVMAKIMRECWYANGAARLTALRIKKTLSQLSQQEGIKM

[5] = target: T5, panel of 468 kinases (Homo sapiens, UniProt Q07002); details: PCTK3; 1 μM; read-out: % control
T5 construct: purchased KINOMEscan (ScanMAX) service
T5 sequence (Q07002 whole entry): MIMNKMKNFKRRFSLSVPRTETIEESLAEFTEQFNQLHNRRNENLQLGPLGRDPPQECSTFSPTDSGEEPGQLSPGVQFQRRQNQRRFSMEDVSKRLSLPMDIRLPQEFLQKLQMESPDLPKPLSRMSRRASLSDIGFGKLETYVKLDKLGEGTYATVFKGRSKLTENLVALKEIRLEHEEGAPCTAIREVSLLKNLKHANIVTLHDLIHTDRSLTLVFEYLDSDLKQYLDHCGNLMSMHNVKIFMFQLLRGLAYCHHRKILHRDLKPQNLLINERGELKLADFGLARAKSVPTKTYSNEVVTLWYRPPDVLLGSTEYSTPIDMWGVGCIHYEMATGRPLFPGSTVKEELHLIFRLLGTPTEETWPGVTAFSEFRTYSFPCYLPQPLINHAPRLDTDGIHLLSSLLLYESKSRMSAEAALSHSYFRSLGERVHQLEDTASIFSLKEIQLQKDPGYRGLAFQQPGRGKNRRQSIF

[6] = target: T6, panel of 468 kinases (Homo sapiens, UniProt Q96L34); details: MARK4; 1 μM; read-out: % control
T6 construct: purchased KINOMEscan (ScanMAX) service
T6 sequence (Q96L34 1-752): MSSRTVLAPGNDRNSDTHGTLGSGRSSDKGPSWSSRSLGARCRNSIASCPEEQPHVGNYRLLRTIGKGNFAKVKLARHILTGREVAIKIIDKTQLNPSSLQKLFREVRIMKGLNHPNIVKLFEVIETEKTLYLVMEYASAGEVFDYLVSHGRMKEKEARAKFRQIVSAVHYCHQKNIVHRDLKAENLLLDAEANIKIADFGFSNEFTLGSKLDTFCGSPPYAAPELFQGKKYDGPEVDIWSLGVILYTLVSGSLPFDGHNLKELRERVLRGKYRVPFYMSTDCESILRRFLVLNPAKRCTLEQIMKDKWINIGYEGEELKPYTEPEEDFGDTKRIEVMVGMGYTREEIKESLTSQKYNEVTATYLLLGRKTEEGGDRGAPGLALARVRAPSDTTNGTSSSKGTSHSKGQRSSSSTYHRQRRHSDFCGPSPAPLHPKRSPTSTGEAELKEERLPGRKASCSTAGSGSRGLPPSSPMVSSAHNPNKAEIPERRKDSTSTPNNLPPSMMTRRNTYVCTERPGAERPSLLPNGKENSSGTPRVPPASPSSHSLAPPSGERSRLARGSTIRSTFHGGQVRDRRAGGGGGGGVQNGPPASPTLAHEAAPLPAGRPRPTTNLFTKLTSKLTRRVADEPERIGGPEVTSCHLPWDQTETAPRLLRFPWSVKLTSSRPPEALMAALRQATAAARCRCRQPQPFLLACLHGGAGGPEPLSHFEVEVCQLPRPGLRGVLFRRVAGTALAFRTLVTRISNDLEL

[7] = target: T7, panel of 468 kinases (Homo sapiens, UniProt Q9Y6R4); details: MAP3K4; 1 μM; read-out: % control
T7 construct: purchased KINOMEscan (ScanMAX) service
T7 sequence (Q9Y6R4 whole entry): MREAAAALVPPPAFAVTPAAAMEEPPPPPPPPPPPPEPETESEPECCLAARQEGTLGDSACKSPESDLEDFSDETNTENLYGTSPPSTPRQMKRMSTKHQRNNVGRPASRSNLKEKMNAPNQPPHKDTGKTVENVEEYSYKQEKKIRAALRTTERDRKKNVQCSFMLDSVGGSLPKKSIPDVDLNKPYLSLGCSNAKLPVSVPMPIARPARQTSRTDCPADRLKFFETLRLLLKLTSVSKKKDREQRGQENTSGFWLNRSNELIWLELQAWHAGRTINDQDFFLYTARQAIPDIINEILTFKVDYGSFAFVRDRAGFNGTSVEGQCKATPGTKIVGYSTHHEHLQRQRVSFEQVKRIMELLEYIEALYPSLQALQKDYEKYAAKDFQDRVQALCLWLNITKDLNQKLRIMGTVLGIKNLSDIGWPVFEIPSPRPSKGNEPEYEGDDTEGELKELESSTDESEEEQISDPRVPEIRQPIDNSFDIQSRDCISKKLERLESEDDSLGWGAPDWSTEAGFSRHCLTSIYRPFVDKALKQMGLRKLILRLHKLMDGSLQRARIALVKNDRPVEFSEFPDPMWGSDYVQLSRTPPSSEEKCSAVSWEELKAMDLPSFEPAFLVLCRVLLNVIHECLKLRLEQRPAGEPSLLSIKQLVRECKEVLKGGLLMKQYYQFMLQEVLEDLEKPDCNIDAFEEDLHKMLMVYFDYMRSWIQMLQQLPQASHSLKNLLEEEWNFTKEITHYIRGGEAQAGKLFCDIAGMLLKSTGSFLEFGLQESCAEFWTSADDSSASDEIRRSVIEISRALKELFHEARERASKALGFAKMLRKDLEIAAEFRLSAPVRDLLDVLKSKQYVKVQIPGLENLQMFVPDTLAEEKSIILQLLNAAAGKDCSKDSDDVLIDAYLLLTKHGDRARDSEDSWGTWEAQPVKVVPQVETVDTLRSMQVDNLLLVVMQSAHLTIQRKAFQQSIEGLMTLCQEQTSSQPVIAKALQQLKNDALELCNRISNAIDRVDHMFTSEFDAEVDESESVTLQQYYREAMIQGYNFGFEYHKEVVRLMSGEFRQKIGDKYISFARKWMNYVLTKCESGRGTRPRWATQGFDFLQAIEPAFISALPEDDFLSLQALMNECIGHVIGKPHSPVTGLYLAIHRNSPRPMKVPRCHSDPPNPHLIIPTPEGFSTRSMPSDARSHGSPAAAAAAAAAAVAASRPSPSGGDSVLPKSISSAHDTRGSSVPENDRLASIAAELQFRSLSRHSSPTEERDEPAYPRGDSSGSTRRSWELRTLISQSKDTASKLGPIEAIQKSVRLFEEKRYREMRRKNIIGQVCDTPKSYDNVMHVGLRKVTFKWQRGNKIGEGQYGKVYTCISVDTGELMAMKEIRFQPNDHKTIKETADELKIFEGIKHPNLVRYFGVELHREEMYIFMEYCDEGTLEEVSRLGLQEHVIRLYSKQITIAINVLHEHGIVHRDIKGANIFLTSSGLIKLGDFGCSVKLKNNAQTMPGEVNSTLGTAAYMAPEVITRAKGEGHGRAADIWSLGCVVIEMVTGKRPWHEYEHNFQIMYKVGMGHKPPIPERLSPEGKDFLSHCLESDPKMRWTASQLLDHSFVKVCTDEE

T1 sequence (P07947 whole entry): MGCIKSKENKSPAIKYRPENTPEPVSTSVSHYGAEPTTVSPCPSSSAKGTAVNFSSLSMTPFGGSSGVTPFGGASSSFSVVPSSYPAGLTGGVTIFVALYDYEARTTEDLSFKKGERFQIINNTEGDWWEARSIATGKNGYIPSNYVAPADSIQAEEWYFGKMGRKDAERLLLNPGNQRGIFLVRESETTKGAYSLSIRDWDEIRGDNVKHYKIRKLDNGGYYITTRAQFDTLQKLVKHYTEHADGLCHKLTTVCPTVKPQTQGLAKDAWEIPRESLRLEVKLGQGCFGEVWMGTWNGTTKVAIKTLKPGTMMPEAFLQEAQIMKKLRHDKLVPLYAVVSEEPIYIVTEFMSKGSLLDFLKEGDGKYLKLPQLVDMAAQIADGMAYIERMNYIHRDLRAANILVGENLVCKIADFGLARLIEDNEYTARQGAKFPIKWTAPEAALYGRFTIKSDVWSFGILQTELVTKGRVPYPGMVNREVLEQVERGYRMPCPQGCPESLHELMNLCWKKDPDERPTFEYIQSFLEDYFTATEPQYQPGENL

| Structure (SMILES) | remaining binding at 1 µM [1] [%] | remaining binding at 1 µM [2] [%] | remaining binding at 1 µM [3] [%] | remaining binding at 1 µM [4] [%] | remaining binding at 1 µM [5] [%] | remaining binding at 1 µM [6] [%] | remaining binding at 1 µM [7] [%] |
| --- | --- | --- | --- | --- | --- | --- | --- |
| CNc1nc(Nc2ccc(S(=O)(=O)N3CCC(N4CCOCC4)CC3)cc2OC)nc2[nH]cc(Cl)c12 [Compound 12, 5-chloro-N2-(2-methoxy-4-((4-morpholinopiperidin-1-yl)sulfonyl)phenyl)-N4-methyl-7H-pyrrolo[2,3-d]pyrimidine-2,4-diamine] | 100 | 100 | 100 | 86 | 100 | 98 | 100 |
| CNc1nc(Nc2ccc(C(=O)N3CCC(N4CCOCC4)CC3)c3c2OCO3)nc2[nH]cc(Cl)c12 [Compound 75, (7-((5-chloro-4-(methylamino)-7H-pyrrolo[2,3-d]pyrimidin-2-yl)amino)benzo[d][1,3]dioxol-4-yl)(4-morpholinopiperidin-1-yl)methanone] | 100 | 100 | 78 | 68 | 100 | 96 | 100 |
| CNc1nc(Nc2ccc(P3(=O)CCN(C4CCOCC4)CC3)cc2OC)nc2[nH]cc(Cl)c12 [Compound 77, 4-(4-((5-chloro-4-(methylamino)-7H-pyrrolo[2,3-d]pyrimidin-2-yl)amino)-3-methoxyphenyl)-1-(tetrahydro-2H-pyran-4-yl)-1,4-azaphosphinane 4-oxide] | 100 | 100 | 82 | 72 | 100 | 97 | 100 |
